One block for each compound: values may come before it.
How the values were obtained:
[1] = tested on: Wnt/b-catenin pathway activity in L-Wnt-STF cells; assay: Suppression of Wnt signaling in L-Wnt-STF cells (Firefly luciferase reporter); assay type: cell-based
Protocol: Chemical synthesis is described below in Example 3. L-Wnt-STF cells (Chen, et al., 2009) were seeded into each well of a white opaque 96-well plate and compounds added immediately thereafter. Luciferase activities (Firefly luciferase for Wnt/b-catenin pathway activity and Renilla luciferase activity as an irrelevant cell signal) were measured using a previously reported protocol (Wang, et al., 2013).
Additional IWPs to suppress Wnt signaling in L-Wnt-STF cells were synthesized and tested for their ability to suppress Wnt signaling as described above. The relevant data for some of the compounds are shown below in Table 1.

[2] = tested on: Dvl2/3 phosphorylation; assay: Western blot for biochemical markers of Wnt signaling in Hela cells: Dvl2/3 phosphorylation; assay type: cell-based; settings: incubated 24 h, Western blot (FIG. 2)
From the text: (§1) Cell lysates were then subjected to Western blot analysis for biochemical markers of Wnt signaling (LRP6 and Dvl2/3 phosphorylation).
(§2) Dishevelled (Dvl) phosphorylation is associated with both canonical and non-canonical Wnt signaling pathways.

[3] = tested on: LRP6 phosphorylation; assay: Western blot for biochemical markers of Wnt signaling in Hela cells: LRP6 phosphorylation; assay type: cell-based; settings: incubated 24 h, Western blot (FIG. 2)
From the text: as §1, §2

[4] = tested on: Axin2 expression; settings: DLD-1 cells, exposure for 2 h; cited from earlier work

EC50 ([1]; alternative substitution pattern of the triazole): 0.1 nM
Structure (SMILES): Cc1cc(-n2nnc(CC(=O)Nc3ccc(-c4ccccc4)cn3)c2-c2ccccc2)ccn1

Structure (SMILES): O=C(Cn1nnc(-c2ccncc2)c1-c1ccccc1)Nc1ccc(-c2ccccc2)cn1 [IWP-O1, 2-(5-Phenyl-4-(pyridin-4-yl)-1H-1,2,3-triazol-1-yl)-N-(5-phenylpyridin-2-yl)acetamide]
phosphorylation of Dvl2/3 [2]: effectively suppressed | phosphorylation of LRP6 [3]: suppressed

Structure (SMILES): O=C(Nc1cccc2cccnc12)c1ccc(N2C(=O)[C@@H]3[C@H](C2=O)[C@@H]2C=C[C@H]3C2)cc1 [IWR-1]
expression of Axin2 [4]: decrease

Structure (SMILES): Cc1cc(-c2ncc(CC(=O)Nc3ccc(-c4cnccn4)cn3)cc2C)ccn1 [LGK974, reference compound]
EC50 ([1]; Table 1 triazole substituent screening, L-Wnt-STF cells, normalized to LGK974 control): 0.2 nM

— patent US10793544B2, “Disubstituted and trisubstituted 1,2,3-triazoles as Wnt inhibitors” (The Board of Regents of the University of Texas System, priority 2016, dated 2020)
